Reference: ChEMBL document CHEMBL5260838 (J Med Chem, 2019)
pIC50: −log10 of the molar value. Activity calls are given as the source filed them. The calls are words filed in the database; no cut-off is given here.

Assays:
[1] = Drug concentration in plasma of FVB mouse model of aconitine-induced pain expressing human Nav1.7 I848T mutant at 3 mg/kg, po administered 120 mins prior to aconitine administered and measured after 70 mins by UPLC-ESI MS/MS analysis; format: ADME, organism-based; settings: time 190 min
[2] = Cmax in Sprague-Dawley rat at 5 mg/kg, po; format: ADME, organism-based; parameters: dose 5 mg/kg, route po; settings: in vivo
[3] = biological target: T1, Peroxisome proliferator-activated receptor gamma (Homo sapiens) (UniProt P37231); assay: Inhibition of PPARgamma (unknown origin) at 10 uM relative to control
T1 sequence (whole entry): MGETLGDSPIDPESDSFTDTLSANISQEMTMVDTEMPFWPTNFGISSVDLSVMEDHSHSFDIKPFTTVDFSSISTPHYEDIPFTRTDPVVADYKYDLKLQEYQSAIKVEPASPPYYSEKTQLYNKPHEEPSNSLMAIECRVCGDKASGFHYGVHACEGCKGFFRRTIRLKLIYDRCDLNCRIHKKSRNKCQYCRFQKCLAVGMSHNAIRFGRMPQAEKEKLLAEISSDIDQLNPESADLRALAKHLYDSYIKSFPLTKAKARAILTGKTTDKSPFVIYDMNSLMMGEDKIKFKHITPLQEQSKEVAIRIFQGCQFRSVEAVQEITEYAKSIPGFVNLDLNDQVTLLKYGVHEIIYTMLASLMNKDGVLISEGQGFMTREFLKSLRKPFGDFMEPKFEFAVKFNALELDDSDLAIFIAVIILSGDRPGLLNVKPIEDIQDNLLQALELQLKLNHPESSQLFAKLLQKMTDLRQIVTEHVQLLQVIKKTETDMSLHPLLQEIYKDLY

[4] = Brain to plasma ratio in FVB mouse model of aconitine-induced pain expressing human Nav1.7 I848T mutant administered orally 120 mins prior to aconitine administered and measured after 70 mins by UPLC-ESI MS/MS analysis; format: ADME; settings: route po, time 190 min, read-out: BPR
[5] = Unbound plasma concentration in FVB mouse model of aconitine-induced pain expressing human Nav1.7 I848T mutant at 0.3 mg/kg, po administered 120 mins prior to aconitine administration and measured after 70 mins by UPLC-ESI MS/MS analysis; format: ADME, organism-based; settings: in vivo, 3.167 h, time 190 min
[6] = Volume of distribution at steady state in Sprague-Dawley rat at 1 mg/kg, iv; format: ADME, organism-based; settings: in vivo, read-out: Vdss
[7] = biological target: Sodium channel protein type 9 subunit alpha (Homo sapiens, UniProt Q15858); assay: Displacement of [3H]GX-545 from human Nav1.7 alpha subunit expressed in HEK293 cells co-expressing beta1 subunit by liquid scintillation counting analysis; format: cell-based
Chain of Sodium channel protein type 9 subunit alpha (Q15858 whole entry): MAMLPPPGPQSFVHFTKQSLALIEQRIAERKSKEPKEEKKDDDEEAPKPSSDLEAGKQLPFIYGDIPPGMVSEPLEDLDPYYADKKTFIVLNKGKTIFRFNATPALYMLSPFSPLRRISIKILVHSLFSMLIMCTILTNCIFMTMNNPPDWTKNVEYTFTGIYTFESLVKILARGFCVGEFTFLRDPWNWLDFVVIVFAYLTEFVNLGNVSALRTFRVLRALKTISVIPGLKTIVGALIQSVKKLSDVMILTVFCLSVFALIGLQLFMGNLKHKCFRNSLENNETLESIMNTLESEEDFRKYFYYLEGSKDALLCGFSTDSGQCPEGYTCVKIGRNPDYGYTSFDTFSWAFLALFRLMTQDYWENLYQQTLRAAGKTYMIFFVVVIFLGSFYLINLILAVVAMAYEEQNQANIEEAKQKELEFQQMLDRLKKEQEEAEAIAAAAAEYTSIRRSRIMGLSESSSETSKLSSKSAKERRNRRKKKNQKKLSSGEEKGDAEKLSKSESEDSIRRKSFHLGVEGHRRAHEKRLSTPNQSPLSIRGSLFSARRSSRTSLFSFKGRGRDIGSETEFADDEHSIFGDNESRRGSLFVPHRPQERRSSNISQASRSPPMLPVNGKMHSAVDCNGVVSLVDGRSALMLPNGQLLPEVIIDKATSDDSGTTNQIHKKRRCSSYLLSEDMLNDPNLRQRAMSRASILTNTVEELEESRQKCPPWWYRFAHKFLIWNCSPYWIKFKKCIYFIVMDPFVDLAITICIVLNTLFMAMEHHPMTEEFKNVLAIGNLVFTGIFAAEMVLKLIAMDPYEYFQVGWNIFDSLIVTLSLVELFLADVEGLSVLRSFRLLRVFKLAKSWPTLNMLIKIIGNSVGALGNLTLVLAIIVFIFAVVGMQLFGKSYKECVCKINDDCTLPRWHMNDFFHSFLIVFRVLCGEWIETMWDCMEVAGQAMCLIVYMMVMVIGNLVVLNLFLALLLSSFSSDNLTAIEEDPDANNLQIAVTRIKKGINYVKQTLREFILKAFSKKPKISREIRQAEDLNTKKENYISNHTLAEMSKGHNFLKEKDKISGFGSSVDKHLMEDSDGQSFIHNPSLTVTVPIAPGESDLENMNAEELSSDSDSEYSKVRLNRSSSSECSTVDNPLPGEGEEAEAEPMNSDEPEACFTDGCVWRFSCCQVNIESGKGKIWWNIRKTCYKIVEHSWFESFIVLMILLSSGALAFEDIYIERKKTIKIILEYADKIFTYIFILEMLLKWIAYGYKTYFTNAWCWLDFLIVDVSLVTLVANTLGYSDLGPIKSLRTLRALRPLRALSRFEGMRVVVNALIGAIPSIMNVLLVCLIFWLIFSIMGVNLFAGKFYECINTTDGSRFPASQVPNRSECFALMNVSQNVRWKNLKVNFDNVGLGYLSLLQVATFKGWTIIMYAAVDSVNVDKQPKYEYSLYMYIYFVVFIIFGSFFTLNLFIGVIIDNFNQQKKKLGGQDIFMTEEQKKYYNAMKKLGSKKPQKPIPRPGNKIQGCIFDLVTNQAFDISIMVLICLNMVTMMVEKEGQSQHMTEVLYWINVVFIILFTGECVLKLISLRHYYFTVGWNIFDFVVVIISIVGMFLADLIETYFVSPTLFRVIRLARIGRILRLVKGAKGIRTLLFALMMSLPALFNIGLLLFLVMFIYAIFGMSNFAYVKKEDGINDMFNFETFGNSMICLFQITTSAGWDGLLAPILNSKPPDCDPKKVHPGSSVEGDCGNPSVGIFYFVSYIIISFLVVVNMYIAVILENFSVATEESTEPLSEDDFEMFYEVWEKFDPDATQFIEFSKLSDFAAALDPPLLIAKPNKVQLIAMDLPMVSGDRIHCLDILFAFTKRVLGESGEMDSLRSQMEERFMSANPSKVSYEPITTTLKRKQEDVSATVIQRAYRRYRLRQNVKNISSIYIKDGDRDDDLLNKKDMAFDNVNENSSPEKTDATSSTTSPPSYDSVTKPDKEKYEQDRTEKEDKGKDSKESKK

Mus musculus [8] = assay: Antinociceptive activity against aconitine-induced pain in FVB mouse model expressing human Nav 1.7 I848T mutant assessed as reduction in nociceptive behavior at 10 mg/kg, po administered 120 mins prior to aconitine administration and measured after 70 mins relative to control; format: functional; parameters: scale not given: the % may be the effect or the level left; settings: time 190 min, 3.167 h
[9] = Protein binding in rat plasma; format: ADME, cell-free; settings: read-out: PPB (converted)
[10] = Half-life in FVB mouse at 30 mg/kg, po; format: ADME, organism-based; settings: in vivo
[11] = AUC in Beagle dog at 1 mg/kg, po; format: ADME, organism-based, Canis lupus familiaris; parameters: dose 1 mg/kg, route po; settings: in vivo
[12] = Protein binding in mouse plasma; format: ADME, cell-free; settings: read-out: PPB (converted)
Cytochrome P450 2C19 = Cytochrome P450 2C19 (Homo sapiens, UniProt P33261); assay: Inhibition of CYP2C19 (unknown origin); format: ADME
Chain of Cytochrome P450 2C19 (P33261 whole entry): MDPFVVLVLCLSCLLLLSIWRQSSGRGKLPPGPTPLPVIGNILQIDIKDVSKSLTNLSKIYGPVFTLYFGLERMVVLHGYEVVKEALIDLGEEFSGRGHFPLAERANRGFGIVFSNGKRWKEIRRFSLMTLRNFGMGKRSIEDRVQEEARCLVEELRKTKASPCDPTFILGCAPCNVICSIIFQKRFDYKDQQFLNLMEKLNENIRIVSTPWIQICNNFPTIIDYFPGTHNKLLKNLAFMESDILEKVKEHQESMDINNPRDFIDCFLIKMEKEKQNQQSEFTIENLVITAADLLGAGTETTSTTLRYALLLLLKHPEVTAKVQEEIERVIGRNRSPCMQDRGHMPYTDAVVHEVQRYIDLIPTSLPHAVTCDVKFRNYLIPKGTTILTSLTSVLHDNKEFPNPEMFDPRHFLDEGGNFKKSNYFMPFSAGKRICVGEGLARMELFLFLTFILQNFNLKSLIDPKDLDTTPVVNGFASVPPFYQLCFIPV

[13] = biological target: Sodium channel protein type 5 subunit alpha (Homo sapiens, UniProt Q14524); assay: Inhibition of human Nav1.5 alpha subunit expressed in HEK293 cells co-expressing beta1 subunit at -60 mV holding potential by PatchXpress automated voltage clamp electrophysiology technique; format: cell-based
Chain of Sodium channel protein type 5 subunit alpha (Q14524 whole entry): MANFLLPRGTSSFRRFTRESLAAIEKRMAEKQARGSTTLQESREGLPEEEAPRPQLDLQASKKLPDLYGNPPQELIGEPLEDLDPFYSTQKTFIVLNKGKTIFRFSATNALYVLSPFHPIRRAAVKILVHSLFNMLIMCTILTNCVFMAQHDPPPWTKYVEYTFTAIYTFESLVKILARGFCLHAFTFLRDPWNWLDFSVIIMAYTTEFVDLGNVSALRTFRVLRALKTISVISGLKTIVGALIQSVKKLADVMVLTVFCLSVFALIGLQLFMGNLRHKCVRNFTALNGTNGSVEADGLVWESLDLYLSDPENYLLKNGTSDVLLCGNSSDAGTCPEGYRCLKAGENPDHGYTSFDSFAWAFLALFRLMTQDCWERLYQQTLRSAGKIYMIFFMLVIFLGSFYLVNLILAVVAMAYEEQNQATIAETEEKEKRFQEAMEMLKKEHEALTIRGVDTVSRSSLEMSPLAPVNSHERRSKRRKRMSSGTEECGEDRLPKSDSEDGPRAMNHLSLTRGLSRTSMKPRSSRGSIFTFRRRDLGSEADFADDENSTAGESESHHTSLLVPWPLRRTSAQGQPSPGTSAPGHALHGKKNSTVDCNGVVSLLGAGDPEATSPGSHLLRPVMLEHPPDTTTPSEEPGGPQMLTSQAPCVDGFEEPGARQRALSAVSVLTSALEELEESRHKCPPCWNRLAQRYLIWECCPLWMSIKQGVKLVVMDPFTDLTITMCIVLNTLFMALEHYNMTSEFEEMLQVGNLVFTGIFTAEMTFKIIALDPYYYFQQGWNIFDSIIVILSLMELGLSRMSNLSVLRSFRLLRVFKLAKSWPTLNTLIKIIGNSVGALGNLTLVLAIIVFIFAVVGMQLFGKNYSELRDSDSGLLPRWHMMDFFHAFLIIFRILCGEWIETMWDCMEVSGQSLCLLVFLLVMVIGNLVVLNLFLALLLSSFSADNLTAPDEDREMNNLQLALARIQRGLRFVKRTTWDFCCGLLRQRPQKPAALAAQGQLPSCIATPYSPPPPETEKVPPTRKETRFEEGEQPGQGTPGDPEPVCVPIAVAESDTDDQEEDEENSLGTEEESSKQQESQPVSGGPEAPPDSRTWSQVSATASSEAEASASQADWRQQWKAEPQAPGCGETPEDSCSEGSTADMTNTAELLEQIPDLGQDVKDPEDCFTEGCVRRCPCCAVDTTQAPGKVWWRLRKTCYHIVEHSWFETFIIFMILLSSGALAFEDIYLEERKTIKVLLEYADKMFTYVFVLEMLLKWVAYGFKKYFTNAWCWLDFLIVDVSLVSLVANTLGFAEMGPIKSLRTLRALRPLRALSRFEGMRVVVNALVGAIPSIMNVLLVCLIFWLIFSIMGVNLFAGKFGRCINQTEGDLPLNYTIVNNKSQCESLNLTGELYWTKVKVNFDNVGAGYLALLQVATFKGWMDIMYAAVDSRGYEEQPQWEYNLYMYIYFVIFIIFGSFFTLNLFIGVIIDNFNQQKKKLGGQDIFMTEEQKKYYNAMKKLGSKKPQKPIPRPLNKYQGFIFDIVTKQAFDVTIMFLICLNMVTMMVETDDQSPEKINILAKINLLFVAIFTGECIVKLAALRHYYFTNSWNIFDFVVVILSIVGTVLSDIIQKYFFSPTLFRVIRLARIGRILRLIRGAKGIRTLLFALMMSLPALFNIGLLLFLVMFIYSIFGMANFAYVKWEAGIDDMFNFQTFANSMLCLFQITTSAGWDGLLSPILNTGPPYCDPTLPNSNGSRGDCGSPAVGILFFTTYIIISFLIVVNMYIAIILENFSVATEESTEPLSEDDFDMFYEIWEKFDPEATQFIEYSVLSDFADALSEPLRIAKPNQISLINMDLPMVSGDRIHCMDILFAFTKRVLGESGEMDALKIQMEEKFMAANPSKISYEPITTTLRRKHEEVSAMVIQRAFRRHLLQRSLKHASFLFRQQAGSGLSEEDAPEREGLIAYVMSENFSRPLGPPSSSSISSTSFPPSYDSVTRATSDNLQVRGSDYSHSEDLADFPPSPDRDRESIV

[14] = Oral bioavailability in Beagle dog at 1 mg/kg; format: ADME, organism-based, Canis lupus familiaris; settings: in vivo
[15] = Oral bioavailability in FVB mouse at 30 mg/kg; format: ADME, organism-based; settings: in vivo
[16] = Drug concentration in plasma of orally dosed formalin-induced FVB mouse model of pain measured after 3 hrs by UPLC-ESI […] analysis; format: ADME, organism-based; settings: route po
Mus musculus [17] = assay: Antinociceptive activity against aconitine-induced pain in FVB mouse model expressing human Nav 1.7 I848T mutant assessed as reduction in nociceptive behavior at 0.3 mg/kg, po administered 120 mins prior to aconitine administration and measured after 70 mins relative to control; format: functional; parameters: scale not given: the % may be the effect or the level left; settings: time 190 min, 3.167 h
Cytochrome P450 2D6 = Cytochrome P450 2D6 (Homo sapiens, UniProt P10635); assay: Inhibition of CYP2D6 (unknown origin); format: ADME
Chain of Cytochrome P450 2D6 (P10635 whole entry): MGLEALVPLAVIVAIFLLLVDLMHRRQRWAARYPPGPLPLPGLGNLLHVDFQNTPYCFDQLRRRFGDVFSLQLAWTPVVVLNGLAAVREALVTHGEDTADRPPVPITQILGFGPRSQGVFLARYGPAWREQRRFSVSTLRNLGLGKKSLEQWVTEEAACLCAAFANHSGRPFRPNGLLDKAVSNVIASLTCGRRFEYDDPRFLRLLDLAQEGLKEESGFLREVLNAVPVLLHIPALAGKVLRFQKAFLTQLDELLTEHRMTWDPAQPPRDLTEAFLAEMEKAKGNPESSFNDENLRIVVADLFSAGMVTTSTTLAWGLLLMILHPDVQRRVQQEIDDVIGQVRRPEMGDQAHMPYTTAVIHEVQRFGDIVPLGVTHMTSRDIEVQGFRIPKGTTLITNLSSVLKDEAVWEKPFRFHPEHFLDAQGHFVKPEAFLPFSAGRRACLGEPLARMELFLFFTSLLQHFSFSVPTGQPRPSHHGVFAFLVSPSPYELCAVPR

[18] = Lipophilicity, logD of the compound at pH 7.4; format: physicochemical; settings: buffer, read-out: logD
Homo sapiens = organism: Homo sapiens; assay: Inhibition of voltage-gated sodium channel (unknown origin) at 10 uM relative to control
[19] = Drug concentration in brain of FVB mouse model of aconitine-induced pain expressing human Nav1.7 I848T mutant at 10 mg/kg, po administered 120 mins prior to aconitine administered and measured after 70 mins by UPLC-ESI MS/MS analysis; format: ADME, organism-based; settings: time 190 min, read-out: Ct
Mus musculus [20] = assay: Antinociceptive activity against aconitine-induced pain in FVB mouse model expressing human Nav 1.7 I848T mutant assessed as reduction in nociceptive behavior at 0.1 mg/kg, po administered 120 mins prior to aconitine administration and measured after 70 mins relative to control; format: functional; parameters: scale not given: the % may be the effect or the level left; settings: time 190 min, 3.167 h
[21] = AUC in Sprague-Dawley rat at 5 mg/kg, po; format: ADME, organism-based; parameters: dose 5 mg/kg, route po; settings: in vivo
Mus musculus [22] = assay: Analgesic activity against formalin-induced pain in FVB mouse model assessed as reduction in formalin-induced pain at 10 mg/kg, po administered for 120 mins prior to formalin challenge and measured after 11 to 40 mins; format: functional, organism-based; settings: time 131-160 min
[23] = Apparent permeability from apical to basolateral side in MDCK1 cells; format: ADME, cell-based, Canis lupus familiaris; settings: dog, MDCK
[24] = Volume of distribution at steady state in Beagle dog at 0.5 mg/kg, iv; format: ADME, organism-based, Canis lupus familiaris; settings: in vivo, read-out: Vdss
Cytochrome P450 1A2 = biological target: T2, Cytochrome P450 1A2 (Homo sapiens, UniProt P05177); assay: Inhibition of CYP1A2 (unknown origin); format: ADME
T2 sequence (P05177 whole entry): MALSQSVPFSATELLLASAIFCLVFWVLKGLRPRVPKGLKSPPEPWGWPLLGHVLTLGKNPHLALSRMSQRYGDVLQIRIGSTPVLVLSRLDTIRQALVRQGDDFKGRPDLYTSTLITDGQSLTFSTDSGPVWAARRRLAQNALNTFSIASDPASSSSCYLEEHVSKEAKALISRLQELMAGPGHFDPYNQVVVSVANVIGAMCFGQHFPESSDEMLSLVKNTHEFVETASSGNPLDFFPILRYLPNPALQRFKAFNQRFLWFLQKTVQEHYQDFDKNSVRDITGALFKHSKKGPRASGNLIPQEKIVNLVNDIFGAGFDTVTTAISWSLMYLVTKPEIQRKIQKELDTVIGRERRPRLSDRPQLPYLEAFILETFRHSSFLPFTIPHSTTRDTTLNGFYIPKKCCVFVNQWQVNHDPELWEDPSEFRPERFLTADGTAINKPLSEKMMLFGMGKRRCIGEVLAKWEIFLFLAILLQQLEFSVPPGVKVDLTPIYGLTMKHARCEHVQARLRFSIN

CC1(COc2cc(F)c(C(=O)NS(=O)(=O)C3CC3)cc2C2CC2)CCC2(CC1)CC2
concentration at 3.167 h [1]: 25 µM
Cmax [2]: 13 µM
inhibition [3]: 91%
Kp at 3.167 h [4]: 0.08
Cp(f) [5]: 0.003 µM
Vd [6]: 0.88 L/kg
pIC50 [7]: 7.82
Activity (Mus musculus [8]): 99.5%
fraction unbound [9]: 0.001
half-life [10]: 9.2 h
AUC [11]: 83 µM·h
fraction unbound [12]: 0.001
pIC50 (Cytochrome P450 2C19): < 5.00
pIC50 [13]: 7.30
bioavailability [14]: 68%
bioavailability [15]: 31%
concentration at 3 h [16]: 50 µM
Activity (Mus musculus [17]): 78%
pIC50 (Cytochrome P450 2D6): < 5.00
logD [18]: 2.1
inhibition (Homo sapiens): 80%
concentration at 3.167 h [19]: 6.2 µM
Activity (Mus musculus [20]): 10%
AUC [21]: 78 µM·h
Activity (Mus musculus [22]): Active
Papp A→B [23]: 9 ×10⁻⁶ cm/s
Vd [24]: 0.14 L/kg
pIC50 (Cytochrome P450 1A2): < 5.00
